Usually EC50 stands for the concentration needed to bring the measured effect to its halfway point. Low values mean an effect from little substance, high ones a need for much substance.

Consider 42 compounds from ChEMBL document CHEMBL4806962, “Methods and Compositions for Treating Cancer” (2020).

Molecules are shown by their SMILES. Active and inactive are the calls of the source. No cut-off for these calls is given here.

Assay [1] concerns the target T1, Probable G-protein coupled receptor 174 (Homo sapiens, UniProt Q9BXC1). As to the kind of experiment: Inverse agonist activity at human GPR174 assessed as fold decrease in Gs signalling activity by CRA. The class given is functional. Particulars: filed as inverse agonist.
Assay [2] has as its target T1, Probable G-protein coupled receptor 174. As to the kind of experiment: Antagonist activity at human GPR174 by CRA. The class given is functional.
Assay [3] in a line: Effects of compound on IL-2 production in anti-CD3/CD28-stimulated human PBMCs assessed as fold increase in IL-2 level at 10 uM after 24 hrs by ELISA. The class given is functional, PBMC. In general terms: An ELISA detects its analyte on a solid surface through an enzyme-linked reagent.
The subject of a further assay is PBMC. As to the kind of experiment: Effects of compound on IL-2 production in anti-CD3/CD28-stimulated human PBMCs assessed as increase in IL-2 level after 2 days by ELISA. The class given is functional, tissue-based. The following applies: dose 1-10 µM, time 2.0 day.
Assay [4] has as its system Splenocyte. As to the kind of experiment: Effects of compound on IL-2 production in anti-CD3/CD28-stimulated GPR174 knock out mouse spleenocytes assessed as fold increase in IL-2 level at 0.3 uM after 2 days in presence of NECA. The class given is functional, cell-based. The following applies: time 2.0 day.
The subject of assay [5] is Splenocyte. As to the kind of experiment: Effects of compound on IL-2 production in anti-CD3/CD28-stimulated wild type mouse spleenocytes assessed as fold increase in IL-2 level at 0.3 uM after 2 days in presence of NECA. The class given is functional. The following applies: time 2 day.
Assay [6] relates to Splenocyte. As to the kind of experiment: Effects of compound on IL-2 production in anti-CD3/CD28-stimulated wild type mouse spleenocytes assessed as fold increase in IL-2 level at 0.3 uM after 2 days in presence of […] and NECA. The class given is functional. Particulars: time 2 day.

T1 sequence (Q9BXC1 whole entry): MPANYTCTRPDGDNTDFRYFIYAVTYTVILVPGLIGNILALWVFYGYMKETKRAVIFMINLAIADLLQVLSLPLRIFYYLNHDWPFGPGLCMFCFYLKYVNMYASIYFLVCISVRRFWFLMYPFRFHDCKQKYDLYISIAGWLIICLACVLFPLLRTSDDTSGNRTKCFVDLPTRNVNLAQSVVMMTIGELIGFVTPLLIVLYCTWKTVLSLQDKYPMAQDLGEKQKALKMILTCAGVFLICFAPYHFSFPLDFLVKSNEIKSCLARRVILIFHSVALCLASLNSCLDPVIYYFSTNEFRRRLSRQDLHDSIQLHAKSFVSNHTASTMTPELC

On to `CCOC(=O)N1CCN(c2cc(N3CCCCC3)c(F)cc2[N+](=O)[O-])CC1`, for which, in assay [1], the fold change (FC) was 0.3. Regarding `Cc1nnc(-c2ccc(C3C4=C(CCCC4=O)NC4=C3C(=O)c3ccccc34)cc2)o1` (stereo unspecified), the fold change (FC) in assay [1] stood at 2.8. For `CCOc1ccc(C2C3=C(CCCC3=O)NC3=C2C(=O)c2ccccc23)cc1` (stereo unspecified), in assay [1], the fold change (FC) came to 0.4.

Take `CC(C)Oc1ccc(C2C3=C(CCCC3=O)NC3=C2C(=O)c2ccccc23)cc1` (stereo unspecified): the fold change (FC) in assay [1] was found to be 0.6.

As for `O=C1CCCC2=C1C(c1ccc(Cl)cc1)C1=C(N2)c2ccccc2C1=O` (stereo unspecified), in assay [1], the fold change (FC) amounted to 3. The same measure, in the same setting: the same measure for `CC(C)c1ccc(C2C3=C(CCCC3=O)NC3=C2C(=O)c2ccccc23)cc1` (stereo unspecified): 1.2; for `CCc1ccc(C2C3=C(CCCC3=O)NC3=C2C(=O)c2ccccc23)cn1` (stereo unspecified): 2; for `O=C1CCCC2=C1C(c1ccc(OC3CCCC3)cc1)C1=C(N2)c2ccccc2C1=O` (stereo unspecified): 1.

With `CCCC(=O)N1CCN(c2cc(N3CCCCC3)c(F)cc2[N+](=O)[O-])CC1`, the fold change (FC) in assay [1] is 0.9.

Take `CCOc1cccc(C2C3=C(CCCC3=O)NC3=C2C(=O)c2ccccc23)c1` (stereo unspecified): the fold change (FC) in assay [1] stood at 1.6. As for `CC(=O)N1CCN(c2cc(N3CCCCC3)c(F)cc2[N+](=O)[O-])CC1`, the fold change (FC) in assay [1] is 0.3. Same read-out and setting: as for `O=C1CCCC2=C1C(c1ccc(OC(F)(F)F)cc1)C1=C(N2)c2ccccc2C1=O` (stereo unspecified), the figure is 1.2; as for `CCCOc1ccc(C2C3=C(CCCC3=O)NC3=C2C(=O)c2ccccc23)cc1` (stereo unspecified), 1. On the same count and under the same terms, the same measure for `C=C(C)COc1ccc(NC(=O)Nc2ccccc2)cc1`: 0.5. On the same count and under the same terms, as for `CCCCCCOc1ccc(C2C3=C(CCCC3=O)NC3=C2C(=O)c2ccccc23)cc1` (stereo unspecified), the figure is 0.5. Take `Cc1ccc(S(=O)(=O)N2CCN(c3cc(N4CCCCC4)c(F)cc3[N+](=O)[O-])CC2)cc1`: the fold change (FC) in assay [1] came out at 1.7.

As for `Cc1ccc(S(=O)(=O)N2CCN(c3cc(N4CCC(C)CC4)c(F)cc3[N+](=O)[O-])CC2)cc1`, in assay [1], the fold change (FC) is 1.1. On the same count and under the same terms, as for `CCCCOc1ccc(C2C3=C(CCCC3=O)NC3=C2C(=O)c2ccccc23)cc1` (stereo unspecified), the figure is 1.2. For `Cc1ccccc1Nc1nnc(-c2ccc(C)c(S(N)(=O)=O)c2)c2ccccc12`, in assay [2], the concentration for a half-maximal effect (EC50) turned out to be 500 nM. Regarding `C=CCOc1ccc(C2C3=C(CCCC3=O)NC3=C2C(=O)c2ccccc23)cc1` (stereo unspecified), the fold change (FC) in assay [1] worked out at 1.2. The same measure, in the same setting: the same measure for `O=C1CCCC2=C1C(c1ccc(Oc3ccccc3)cc1)C1=C(N2)c2ccccc2C1=O` (stereo unspecified): 1; for `CCOC(=O)N1CCN(c2cc(N3CCCCC3C)c(F)cc2[N+](=O)[O-])CC1` (stereo unspecified): 1; for `CCOC(=O)N1CCN(c2cc(N3CCC(C)CC3)c(F)cc2[N+](=O)[O-])CC1`: 0.4. The same measure, in the same setting: the same measure for `CCc1ccc(C2C3=C(CCCC3=O)NC3=C2C(=O)c2ccccc23)cc1` (stereo unspecified): 0.5. Still for that read-out and setting: the same measure for `O=C1CCCC2=C1C(c1ccc([N+](=O)[O-])cc1)C1=C(N2)c2ccccc2C1=O` (stereo unspecified): 2.7; for `O=C1CCCC2=C1C(c1ccc3c(c1)OCCO3)C1=C(N2)c2ccccc2C1=O` (stereo unspecified): 2.6; for `O=C1CCCC2=C1C(c1ccc(-c3ccccc3)cc1)C1=C(N2)c2ccccc2C1=O` (stereo unspecified): 2.5. On to `CS(=O)(=O)c1ccc(C2C3=C(CCCC3=O)NC3=C2C(=O)c2ccccc23)cc1` (stereo unspecified), for which the fold change (FC) in assay [1] amounted to 3.3.

For `Nc1ncnc2c1ncn2[C@@H]1O[C@H](COP(=O)(O)CP(=O)([O-])O)[C@@H](O)[C@H]1O.[Na+]`, the “fold change (FC)” value in assay [3] came out at 1.5.

For the compound `O=C1CCCC2=C1C(c1ccc(OCCO)cc1)C1=C(N2)c2ccccc2C1=O` (stereo unspecified), the fold change (FC) in assay [1] stood at 4.4.

As to `CC(=O)N1CCN(c2cc(N3CCC(C)CC3)c(F)cc2[N+](=O)[O-])CC1`, the fold change (FC) in assay [1] came out at 0.8. On the same count and under the same terms, as for `CCC(=O)N1CCN(c2cc(N3CCCCC3)c(F)cc2[N+](=O)[O-])CC1`, the figure is 0.5; as for `O=[N+]([O-])c1cc(F)c(N2CCCCC2)cc1N1CCN(S(=O)(=O)c2ccccc2)CC1`, 0.5.

For `COc1ccc(C2C3=C(CCCC3=O)NC3=C2C(=O)c2ccccc23)cc1` (stereo unspecified), in assay [1], the fold change (FC) came to 1. For the compound `O=C(c1ccccc1)N1CCN(c2cc(N3CCCCC3)c(F)cc2[N+](=O)[O-])CC1`, in the assay with PBMC, the Activity result was “Dose-Dependent Effect”. The result in the assay with Splenocyte [4] was inactive. In addition, the fold change (FC) stood at 0.3 in assay [1], 1.7 in the assay on Splenocyte [5] and 4.9 with Splenocyte [6]. As to `CC(C)(C)Oc1ccc(C2C3=C(CCCC3=O)NC3=C2C(=O)c2ccccc23)cc1` (stereo unspecified), in assay [1], the fold change (FC) came out at 1.3. For the compound `CC1CCN(c2cc(N3CCN(C(=O)c4cccs4)CC3)c([N+](=O)[O-])cc2F)CC1`, in assay [1], the fold change (FC) is 0.4. In the case of `CCOc1ccc(C2C3=C(CCCC3=O)NC3=C2C(=O)c2ccccc23)cn1` (stereo unspecified), the fold change (FC) in assay [1] amounted to 0.6. Regarding `O=C1CCCC2=C1C(c1ccc(OC(F)F)cc1)C1=C(N2)c2ccccc2C1=O` (stereo unspecified), the fold change (FC) in assay [1] is 1.2. In the case of `CC(C)C(=O)N1CCN(c2cc(N3CCCCC3C)c(F)cc2[N+](=O)[O-])CC1` (stereo unspecified), the fold change (FC) in assay [1] worked out at 0.8.

Regarding `CCC(=O)N1CCN(c2cc(N3CCC(C)CC3)c(F)cc2[N+](=O)[O-])CC1`, the fold change (FC) in assay [1] is 0.4.

For `O=[N+]([O-])c1cc(F)c(N2CCCCCC2)cc1N1CCN(S(=O)(=O)c2ccccc2)CC1`, the fold change (FC) in assay [1] was determined as 1.8.
